Values after ≈ are worked out from the molar mass of the structure shown. Blank lines part the entries; values can stand above or below the molecule they belong to. Active and inactive are the calls of the source. No cut-off for these calls is given here.
Legend:
Rattus norvegicus [1] = assay: Inhibition of PGE2-induced decrease in bladder capacity in conscious spontaneously hypertensive overactive bladder rat model at 30 mg/kg, id; format: functional, organism-based; design: dose 30 mg/kg; conditions: Urinary bladder
Rattus norvegicus [2] = assay: Inhibition of GR63799-induced decrease in bladder capacity in conscious spontaneously hypertensive overactive bladder rat model at 30 mg/kg, id; format: functional, organism-based; design: dose 30 mg/kg; conditions: Urinary bladder
Rattus norvegicus [3] = assay: Inhibition of GR63799-induced decrease in bladder capacity in conscious spontaneously hypertensive overactive bladder rat model at 0.3 mg/kg, id; format: functional, organism-based; design: dose 0.3 mg/kg; conditions: Urinary bladder
Rattus norvegicus [4] = assay: Inhibition of saline-induced bladder rhythmic contraction in anesthetized iv dosed Sprague-Dawley rat model; format: functional, organism-based
[5] = Antagonist activity at dog EP3 receptor expressed in human U2OS cells co-expressing Gqi5 assessed as inhibition of PGE2-induced response after 24 hrs by FLIPR assay; format: functional, cell-based, Canis lupus familiaris
Rattus norvegicus [6] = assay: Inhibition of acetic acid-induced decrease in bladder capacity in conscious spontaneously hypertensive overactive bladder rat model at 30 mg/kg, id; format: functional, organism-based; design: dose 30 mg/kg; conditions: Urinary bladder
Rattus norvegicus [7] = assay: Inhibition of GR63799-induced decrease in bladder capacity in conscious spontaneously hypertensive overactive bladder rat model at 3 mg/kg, id; format: functional, organism-based; design: dose 3 mg/kg; conditions: Urinary bladder
[8] = target: T1, Prostaglandin E2 receptor EP3 subtype (Homo sapiens, UniProt P43115); assay: Binding affinity to human EP3
T1 sequence (P43115 whole entry): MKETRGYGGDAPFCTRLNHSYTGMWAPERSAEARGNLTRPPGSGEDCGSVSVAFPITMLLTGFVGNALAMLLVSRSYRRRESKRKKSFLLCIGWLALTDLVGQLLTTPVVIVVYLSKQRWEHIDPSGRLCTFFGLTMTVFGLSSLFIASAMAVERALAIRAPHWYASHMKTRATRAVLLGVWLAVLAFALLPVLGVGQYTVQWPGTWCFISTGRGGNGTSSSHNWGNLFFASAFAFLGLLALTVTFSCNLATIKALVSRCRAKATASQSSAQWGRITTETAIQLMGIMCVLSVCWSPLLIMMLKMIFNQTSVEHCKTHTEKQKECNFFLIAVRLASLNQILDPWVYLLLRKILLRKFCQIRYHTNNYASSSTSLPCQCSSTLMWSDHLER

[9] = Aqueous solubility of the compound; format: physicochemical; conditions: buffer
[10] = target: T2, Prostaglandin G/H synthase 1 (Rattus norvegicus, UniProt Q63921); assay: Inhibition of COX1 in rat whole blood assessed as decreased PGE2 production; format: tissue-based
T2 sequence (Q63921 whole entry): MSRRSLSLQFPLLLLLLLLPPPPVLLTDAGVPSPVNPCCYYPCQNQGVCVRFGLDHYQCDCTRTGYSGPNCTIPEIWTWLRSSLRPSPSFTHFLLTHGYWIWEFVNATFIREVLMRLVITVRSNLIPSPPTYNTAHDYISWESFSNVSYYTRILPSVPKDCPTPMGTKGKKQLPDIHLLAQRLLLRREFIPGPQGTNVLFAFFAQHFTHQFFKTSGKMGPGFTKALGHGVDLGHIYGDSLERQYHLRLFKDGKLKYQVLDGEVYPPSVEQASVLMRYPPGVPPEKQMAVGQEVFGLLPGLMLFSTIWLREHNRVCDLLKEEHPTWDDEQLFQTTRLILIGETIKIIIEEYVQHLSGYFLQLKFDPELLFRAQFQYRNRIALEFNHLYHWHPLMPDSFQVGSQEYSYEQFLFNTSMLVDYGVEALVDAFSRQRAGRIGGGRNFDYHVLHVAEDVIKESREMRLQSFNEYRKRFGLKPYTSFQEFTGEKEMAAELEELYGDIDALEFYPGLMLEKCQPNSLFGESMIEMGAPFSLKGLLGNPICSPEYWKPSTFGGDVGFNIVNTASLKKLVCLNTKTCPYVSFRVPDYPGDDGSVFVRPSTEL

[11] = target: Voltage-gated inwardly rectifying potassium channel KCNH2 (Homo sapiens, UniProt Q12809); assay: Inhibition of human ERG
Sequence of Voltage-gated inwardly rectifying potassium channel KCNH2 (Q12809 whole entry): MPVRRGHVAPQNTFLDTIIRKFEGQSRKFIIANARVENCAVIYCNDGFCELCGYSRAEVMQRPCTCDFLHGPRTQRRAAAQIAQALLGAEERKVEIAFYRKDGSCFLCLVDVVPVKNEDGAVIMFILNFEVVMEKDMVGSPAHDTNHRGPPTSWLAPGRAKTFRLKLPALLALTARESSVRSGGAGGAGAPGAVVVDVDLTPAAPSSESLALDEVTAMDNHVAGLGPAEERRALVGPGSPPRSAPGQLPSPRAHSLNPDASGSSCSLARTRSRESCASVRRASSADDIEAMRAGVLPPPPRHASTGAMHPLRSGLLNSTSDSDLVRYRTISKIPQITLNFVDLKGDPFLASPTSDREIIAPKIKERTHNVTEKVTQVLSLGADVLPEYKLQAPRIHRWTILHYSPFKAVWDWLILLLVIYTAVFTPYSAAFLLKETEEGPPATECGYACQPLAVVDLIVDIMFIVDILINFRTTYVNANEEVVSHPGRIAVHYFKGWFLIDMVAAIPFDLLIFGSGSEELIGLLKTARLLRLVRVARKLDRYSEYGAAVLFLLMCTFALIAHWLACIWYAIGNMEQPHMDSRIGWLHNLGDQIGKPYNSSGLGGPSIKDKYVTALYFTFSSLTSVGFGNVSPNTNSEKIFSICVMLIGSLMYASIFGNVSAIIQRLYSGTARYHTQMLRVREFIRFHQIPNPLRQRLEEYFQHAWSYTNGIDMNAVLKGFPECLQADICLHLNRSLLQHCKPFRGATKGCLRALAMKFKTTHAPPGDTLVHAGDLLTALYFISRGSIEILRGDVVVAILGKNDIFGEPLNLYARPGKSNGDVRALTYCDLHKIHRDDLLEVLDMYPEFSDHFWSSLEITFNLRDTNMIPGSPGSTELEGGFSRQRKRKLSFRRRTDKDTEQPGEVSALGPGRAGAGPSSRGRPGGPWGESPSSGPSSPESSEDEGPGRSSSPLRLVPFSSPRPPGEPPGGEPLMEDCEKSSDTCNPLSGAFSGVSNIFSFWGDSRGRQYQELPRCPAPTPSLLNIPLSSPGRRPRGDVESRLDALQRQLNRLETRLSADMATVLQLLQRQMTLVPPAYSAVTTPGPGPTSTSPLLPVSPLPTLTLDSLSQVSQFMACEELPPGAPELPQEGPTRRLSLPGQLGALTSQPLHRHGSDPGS

[12] = Drug metabolism in human liver S9 fraction assessed as NADPH-dependent glutathione conjugate level at 10 uM after 30 mins by LC-MS/MS analysis; format: ADME, subcellular; conditions: s9, 0.5 h
[13] = target: Prostaglandin E2 receptor EP4 subtype (Homo sapiens, UniProt P35408); assay: Binding affinity at human EP4 receptor
Sequence of Prostaglandin E2 receptor EP4 subtype (P35408 whole entry): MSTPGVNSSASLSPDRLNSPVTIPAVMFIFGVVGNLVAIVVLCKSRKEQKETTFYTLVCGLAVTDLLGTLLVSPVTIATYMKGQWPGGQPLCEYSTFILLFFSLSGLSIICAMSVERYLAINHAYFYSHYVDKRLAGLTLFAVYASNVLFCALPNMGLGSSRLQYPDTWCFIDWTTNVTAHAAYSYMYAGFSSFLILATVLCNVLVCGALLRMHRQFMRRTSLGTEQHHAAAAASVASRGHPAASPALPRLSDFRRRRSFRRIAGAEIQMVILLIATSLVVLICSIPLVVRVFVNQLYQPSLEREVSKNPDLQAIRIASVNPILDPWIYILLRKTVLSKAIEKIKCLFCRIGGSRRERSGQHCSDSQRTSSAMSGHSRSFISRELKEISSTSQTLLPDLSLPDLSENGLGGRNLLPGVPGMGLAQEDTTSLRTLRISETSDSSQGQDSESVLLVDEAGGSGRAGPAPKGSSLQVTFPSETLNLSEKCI

[14] = target: T3, Prostaglandin E2 receptor EP3 subtype (Rattus norvegicus, UniProt P34980); assay: Antagonist activity at rat EP3 receptor expressed in human U2OS cells co-expressing Gqi5 assessed as inhibition of PGE2-induced response after 24 hrs by FLIPR assay; format: functional, cell-based
T3 sequence (P34980 whole entry): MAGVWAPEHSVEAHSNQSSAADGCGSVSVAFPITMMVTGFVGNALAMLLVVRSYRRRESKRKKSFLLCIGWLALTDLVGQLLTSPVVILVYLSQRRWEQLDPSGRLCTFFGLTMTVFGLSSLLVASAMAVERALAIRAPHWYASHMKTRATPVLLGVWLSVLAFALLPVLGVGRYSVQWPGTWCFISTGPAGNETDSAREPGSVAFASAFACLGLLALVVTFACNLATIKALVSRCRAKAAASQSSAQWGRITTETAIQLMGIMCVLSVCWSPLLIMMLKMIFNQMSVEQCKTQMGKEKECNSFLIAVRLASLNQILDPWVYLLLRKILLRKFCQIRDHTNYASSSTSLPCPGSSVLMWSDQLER

[15] = target: T4, Prostaglandin D2 receptor (Homo sapiens, UniProt Q13258); assay: Binding affinity at human DP receptor
T4 sequence (Q13258 whole entry): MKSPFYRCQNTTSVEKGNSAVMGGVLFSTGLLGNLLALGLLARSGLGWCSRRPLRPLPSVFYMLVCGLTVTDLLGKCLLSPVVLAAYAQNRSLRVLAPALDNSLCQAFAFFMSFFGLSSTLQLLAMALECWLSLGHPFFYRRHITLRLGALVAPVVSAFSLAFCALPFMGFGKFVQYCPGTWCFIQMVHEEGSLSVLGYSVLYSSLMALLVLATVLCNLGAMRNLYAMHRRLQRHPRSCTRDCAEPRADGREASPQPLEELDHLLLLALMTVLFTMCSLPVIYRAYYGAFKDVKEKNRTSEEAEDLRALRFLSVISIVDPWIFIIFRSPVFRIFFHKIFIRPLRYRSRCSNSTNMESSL

[16] = Drug metabolism in rat liver S9 fraction assessed as NADPH-dependent glutathione conjugate level at 10 uM after 30 mins by LC-MS/MS analysis; format: ADME, subcellular; conditions: s9, 0.5 h
[17] = target: T5, Prostaglandin G/H synthase 2 (Rattus norvegicus, UniProt P35355); assay: Inhibition of COX2 in rat whole blood assessed as decreased PGE2 production; format: tissue-based
T5 sequence (P35355 whole entry): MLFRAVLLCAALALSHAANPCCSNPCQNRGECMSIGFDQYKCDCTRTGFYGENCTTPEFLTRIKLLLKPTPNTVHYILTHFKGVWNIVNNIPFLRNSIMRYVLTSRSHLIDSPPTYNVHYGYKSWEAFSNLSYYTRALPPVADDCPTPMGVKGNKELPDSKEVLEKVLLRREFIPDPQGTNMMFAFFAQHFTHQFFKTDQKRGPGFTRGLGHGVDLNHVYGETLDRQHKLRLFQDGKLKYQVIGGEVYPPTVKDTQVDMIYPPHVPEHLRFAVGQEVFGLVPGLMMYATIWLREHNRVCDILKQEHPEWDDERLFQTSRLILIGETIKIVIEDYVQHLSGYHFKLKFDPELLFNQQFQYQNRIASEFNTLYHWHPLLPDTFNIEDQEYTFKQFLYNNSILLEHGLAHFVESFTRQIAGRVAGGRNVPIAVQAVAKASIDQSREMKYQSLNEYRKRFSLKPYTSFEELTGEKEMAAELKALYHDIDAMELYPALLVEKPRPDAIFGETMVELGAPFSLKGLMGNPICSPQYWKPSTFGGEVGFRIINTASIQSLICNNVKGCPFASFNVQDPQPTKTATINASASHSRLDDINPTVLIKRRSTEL

Cytochrome P450 2C9 = Cytochrome P450 2C9 (Homo sapiens, UniProt P11712); assay: Inhibition of CYP2C9; format: ADME
Sequence of Cytochrome P450 2C9 (P11712 whole entry): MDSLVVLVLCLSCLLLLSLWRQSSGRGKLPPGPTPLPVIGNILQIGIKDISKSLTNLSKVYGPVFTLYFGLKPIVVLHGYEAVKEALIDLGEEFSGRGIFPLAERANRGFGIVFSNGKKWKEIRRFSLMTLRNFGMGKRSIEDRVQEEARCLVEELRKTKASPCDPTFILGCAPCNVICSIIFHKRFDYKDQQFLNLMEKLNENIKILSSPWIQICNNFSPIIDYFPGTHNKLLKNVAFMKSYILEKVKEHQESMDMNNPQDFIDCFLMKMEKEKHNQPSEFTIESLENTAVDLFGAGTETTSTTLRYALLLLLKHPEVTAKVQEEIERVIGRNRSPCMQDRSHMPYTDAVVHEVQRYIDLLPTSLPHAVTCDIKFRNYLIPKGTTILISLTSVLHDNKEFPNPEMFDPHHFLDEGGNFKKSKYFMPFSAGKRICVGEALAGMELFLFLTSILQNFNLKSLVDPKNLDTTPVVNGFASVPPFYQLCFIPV

Rattus norvegicus [18] = assay: Dose-normalized AUC in Sprague-Dawley rat at 2 mg/kg, po; format: ADME, organism-based; design: dose 2 mg/kg, route oral; conditions: in vivo
[19] = target: T6, Prostaglandin E2 receptor EP1 subtype (Homo sapiens, UniProt P34995); assay: Antagonist activity at EP1 receptor in human U2OS cells expressing Gqi5 assessed as inhibition of PGE2-induced response after 24 hrs by FLIPR assay; format: functional, cell-based
T6 sequence (P34995 whole entry): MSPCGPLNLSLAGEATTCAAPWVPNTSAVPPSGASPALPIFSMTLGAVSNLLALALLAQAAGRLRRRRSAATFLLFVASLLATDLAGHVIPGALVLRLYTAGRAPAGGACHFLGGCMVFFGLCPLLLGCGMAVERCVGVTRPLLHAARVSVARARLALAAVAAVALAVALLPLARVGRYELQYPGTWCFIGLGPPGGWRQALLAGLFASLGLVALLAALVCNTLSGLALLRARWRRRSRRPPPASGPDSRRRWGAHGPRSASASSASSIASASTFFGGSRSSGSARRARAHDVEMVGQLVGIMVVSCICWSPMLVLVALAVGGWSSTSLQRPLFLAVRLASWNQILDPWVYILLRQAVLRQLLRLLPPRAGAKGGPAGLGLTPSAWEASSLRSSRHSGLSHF

Cytochrome P450 2C19 = Cytochrome P450 2C19 (Homo sapiens, UniProt P33261); assay: Inhibition of CYP2C19; format: ADME
Sequence of Cytochrome P450 2C19 (P33261 whole entry): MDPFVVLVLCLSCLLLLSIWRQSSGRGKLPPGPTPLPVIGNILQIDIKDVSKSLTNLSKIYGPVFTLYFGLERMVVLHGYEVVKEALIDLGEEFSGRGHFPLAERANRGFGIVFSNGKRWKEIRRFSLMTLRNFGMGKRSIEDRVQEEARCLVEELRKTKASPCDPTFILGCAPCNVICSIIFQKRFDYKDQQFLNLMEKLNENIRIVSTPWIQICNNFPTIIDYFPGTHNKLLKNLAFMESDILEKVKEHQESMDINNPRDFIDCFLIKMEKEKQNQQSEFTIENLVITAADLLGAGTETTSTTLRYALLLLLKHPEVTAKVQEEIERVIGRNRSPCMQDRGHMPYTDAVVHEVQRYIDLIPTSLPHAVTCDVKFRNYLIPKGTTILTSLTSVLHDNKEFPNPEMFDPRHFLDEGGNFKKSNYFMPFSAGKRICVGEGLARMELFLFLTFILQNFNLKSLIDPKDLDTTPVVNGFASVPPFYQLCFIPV

[20] = Half life in Sprague-Dawley rat at 1 mg/kg, iv; format: ADME, organism-based; design: dose 1 mg/kg, route intravenous; conditions: in vivo
[21] = Clearance in Sprague-Dawley rat at 1 mg/kg, iv and 2 mg/kg, po; format: ADME, organism-based; conditions: in vivo
[22] = target: Prostaglandin F2-alpha receptor (Homo sapiens, UniProt P43088); assay: Antagonist activity at FP receptor in human U2OS cells expressing Gqi5 assessed as inhibition of PGE2-induced response after 48 hrs by FLIPR assay; format: functional, cell-based
Sequence of Prostaglandin F2-alpha receptor (P43088 whole entry): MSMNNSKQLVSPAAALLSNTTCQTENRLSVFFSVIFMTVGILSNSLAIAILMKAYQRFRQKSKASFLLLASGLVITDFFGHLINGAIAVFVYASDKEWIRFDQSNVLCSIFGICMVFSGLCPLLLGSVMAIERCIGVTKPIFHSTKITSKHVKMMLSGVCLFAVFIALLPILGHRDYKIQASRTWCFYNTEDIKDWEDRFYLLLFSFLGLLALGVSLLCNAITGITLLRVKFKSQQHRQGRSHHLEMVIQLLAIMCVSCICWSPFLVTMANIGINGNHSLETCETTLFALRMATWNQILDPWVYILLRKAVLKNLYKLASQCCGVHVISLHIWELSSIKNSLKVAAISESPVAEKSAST

[23] = target: T1, Prostaglandin E2 receptor EP3 subtype; assay: Antagonist activity at human EP3c receptor expressed in human U2OS cells assessed as inhibition of PGE2-induced calcium mobilization after 24 hrs by FLIPR assay; format: functional, cell-based
Cytochrome P450 2D6 = Cytochrome P450 2D6 (Homo sapiens, UniProt P10635); assay: Inhibition of CYP2D6; format: ADME
Sequence of Cytochrome P450 2D6 (P10635 whole entry): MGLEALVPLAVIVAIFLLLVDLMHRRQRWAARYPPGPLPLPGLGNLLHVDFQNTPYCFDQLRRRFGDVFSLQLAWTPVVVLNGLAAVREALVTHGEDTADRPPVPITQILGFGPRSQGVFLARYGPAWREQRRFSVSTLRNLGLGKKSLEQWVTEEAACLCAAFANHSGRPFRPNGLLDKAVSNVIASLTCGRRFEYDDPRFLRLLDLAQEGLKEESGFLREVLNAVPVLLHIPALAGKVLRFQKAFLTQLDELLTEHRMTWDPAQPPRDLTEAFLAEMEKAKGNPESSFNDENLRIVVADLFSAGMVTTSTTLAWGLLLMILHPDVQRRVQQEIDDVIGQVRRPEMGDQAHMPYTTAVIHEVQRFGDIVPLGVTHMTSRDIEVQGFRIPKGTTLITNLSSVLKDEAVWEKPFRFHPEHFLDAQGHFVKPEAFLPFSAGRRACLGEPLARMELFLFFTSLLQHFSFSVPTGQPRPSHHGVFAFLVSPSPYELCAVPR

[24] = Oral bioavailability in Sprague-Dawley rat at 2 mg/kg; format: ADME, organism-based; conditions: in vivo
[25] = target: Prostaglandin E2 receptor EP2 subtype (Homo sapiens, UniProt P43116); assay: Antagonist activity against human EP2 receptor expressed in CHO-K1 cells assessed as inhibition of cAMP production after 4 hrs by FRET signal in LANCE assay; format: functional, cell-based
Sequence of Prostaglandin E2 receptor EP2 subtype (P43116 whole entry): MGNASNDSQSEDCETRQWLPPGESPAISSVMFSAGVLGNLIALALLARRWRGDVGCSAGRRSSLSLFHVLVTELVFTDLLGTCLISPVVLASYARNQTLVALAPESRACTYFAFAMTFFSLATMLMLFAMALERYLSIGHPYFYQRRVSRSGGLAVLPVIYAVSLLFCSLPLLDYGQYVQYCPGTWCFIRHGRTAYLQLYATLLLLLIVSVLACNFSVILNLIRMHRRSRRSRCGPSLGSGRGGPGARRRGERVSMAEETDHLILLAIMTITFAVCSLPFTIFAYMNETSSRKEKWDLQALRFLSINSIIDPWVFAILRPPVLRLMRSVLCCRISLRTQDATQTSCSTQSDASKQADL

Cytochrome P450 1A2 = target: T7, Cytochrome P450 1A2 (Homo sapiens, UniProt P05177); assay: Inhibition of CYP1A2; format: ADME
T7 sequence (P05177 whole entry): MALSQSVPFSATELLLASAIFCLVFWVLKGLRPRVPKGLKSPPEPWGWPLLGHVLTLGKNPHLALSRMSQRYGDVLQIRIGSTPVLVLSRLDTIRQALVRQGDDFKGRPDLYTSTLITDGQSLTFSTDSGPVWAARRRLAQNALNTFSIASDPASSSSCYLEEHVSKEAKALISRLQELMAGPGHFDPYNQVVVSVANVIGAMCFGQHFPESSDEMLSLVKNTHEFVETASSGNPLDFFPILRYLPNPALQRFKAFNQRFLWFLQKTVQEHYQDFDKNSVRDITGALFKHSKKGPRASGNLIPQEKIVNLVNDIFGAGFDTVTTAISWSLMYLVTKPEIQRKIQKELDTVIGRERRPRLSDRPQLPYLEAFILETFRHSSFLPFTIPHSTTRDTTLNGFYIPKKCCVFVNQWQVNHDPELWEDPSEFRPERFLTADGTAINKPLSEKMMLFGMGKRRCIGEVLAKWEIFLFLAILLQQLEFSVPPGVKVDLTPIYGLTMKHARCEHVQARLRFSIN

Cytochrome P450 3A4 = Cytochrome P450 3A4 (Homo sapiens, UniProt P08684); assay: Inhibition of CYP3A4; format: ADME
Sequence of Cytochrome P450 3A4 (P08684 whole entry): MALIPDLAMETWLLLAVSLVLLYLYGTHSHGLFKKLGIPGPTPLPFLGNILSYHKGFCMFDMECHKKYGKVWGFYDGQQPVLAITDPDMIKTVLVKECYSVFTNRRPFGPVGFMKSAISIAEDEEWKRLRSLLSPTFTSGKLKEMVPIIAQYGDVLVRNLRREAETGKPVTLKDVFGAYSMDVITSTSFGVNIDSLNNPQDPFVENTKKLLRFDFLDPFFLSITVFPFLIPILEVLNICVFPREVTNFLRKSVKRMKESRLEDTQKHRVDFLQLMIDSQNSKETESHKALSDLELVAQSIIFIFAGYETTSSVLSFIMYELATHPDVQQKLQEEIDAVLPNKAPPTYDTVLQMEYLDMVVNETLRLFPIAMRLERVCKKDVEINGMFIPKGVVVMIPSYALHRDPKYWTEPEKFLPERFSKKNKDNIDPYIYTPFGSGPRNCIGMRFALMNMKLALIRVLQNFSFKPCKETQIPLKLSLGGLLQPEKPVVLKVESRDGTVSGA

Compound: CC(C)C1(c2ccc(-c3ccc4ccccc4c3)[nH]c2=O)OC(=O)NC1=O (stereo not given)
- inhibition (Rattus norvegicus [1]): Active
- inhibition (Rattus norvegicus [2]): Active
- inhibition (Rattus norvegicus [3]): inactive
- inhibition (Rattus norvegicus [4]): Dose-dependent effect
- pKi [5]: 7.7
- inhibition (Rattus norvegicus [6]): Active
- inhibition (Rattus norvegicus [7]): Active

- Ki [8]: 0.00501 µM
- solubility [9]: 193 µM (≈ 69.9 µg/mL)
- IC50 [10]: > 100 µM
- Drug metabolism [12]: Not Active
- IC50 [13]: > 50.1 µM
- Ki [14]: 0.01 µM
- IC50 [15]: > 50.1 µM
- Drug metabolism [16]: Active
- IC50 [17]: > 100 µM
- IC50 (Cytochrome P450 2C9): > 50.1 µM
- AUC/dose (Rattus norvegicus [18]): 5.5 µg·h/mL/mg/kg
- Ki [19]: > 50.1 µM
- IC50 (Cytochrome P450 2C19): > 50.1 µM
- half-life [20]: 4 h
- clearance [21]: 2.6 mL/min/kg
- IC50 [22]: > 50.1 µM
- Ki [23]: 0.01 µM
- IC50 (Cytochrome P450 2D6): > 50.1 µM
- bioavailability [24]: 83%
- IC50 [25]: > 50.1 µM
- IC50 (Cytochrome P450 1A2): > 50.1 µM
- IC50 (Cytochrome P450 3A4): > 50.1 µM
Compound: CC(C)C1(c2ccc(-c3ccc4ccccc4c3)[nH]c2=O)OC(O)=NC1=O (stereo not given)
- IC50 [11]: > 50.1 µM

Source: ChEMBL document CHEMBL2034937, “Novel 3-Oxazolidinedione-6-aryl-pyridinones as Potent, Selective, and Orally Active EP3 Receptor Antagonists” (ACS Med Chem Lett, 2010)
